How the values were obtained:
[1] = system: Tetrahymena pyriformis; test: 48 h IGC50 (-log10 mol/L); higher = more toxic
[2] = system: Daphnia magna; test: 48 h LC50 (-log10 mol/L); higher = more toxic
[3] = system: Pimephales promelas; test: 96 h LC50 (-log10 mol/L); higher = more toxic

| SMILES | 48 h IGC50 (-log10 mol/L) [1] | 48 h LC50 (-log10 mol/L) [2] | 96 h LC50 (-log10 mol/L) [3] |
| --- | --- | --- | --- |
| CC#N | 0.723 | 1.06 | 1.61 |
| Cc1cccc([N+](=O)[O-])c1 | 3.42 | 4.04 | 3.64 |
| CCCCCCCO | 3.1 | 3.23 | 3.51 |
| CNc1ccccc1 | 3.06 | 5.79 | 3.03 |
| C=Cc1ccccc1 | 2.98 | 3.53 | 3.79 |
| CCO | 1.01 | 0.59 | 0.534 |
| O=[N+]([O-])c1ccc(O)c([N+](=O)[O-])c1 | 4.06 | 4.61 | 4.22 |
| CCCCCC | 3.72 | 4.34 | 4.54 |
| Nc1ccc(Cl)c(Cl)c1Cl | 4.35 | 5.43 | 4.74 |
| O=[N+]([O-])c1ccccc1O | 3.67 | 4.02 | 2.94 |
| CC1=CC(=O)c2ccccc2C1=O | 4.54 | 5.54 | 6.2 |
| CCCCC(=O)O | 2.73 | 3.36 | 3.12 |
| Cc1ccc(O)cc1 | 2.84 | 3.71 | 3.67 |
| Oc1cc(Cl)c(Cl)cc1Cl | 5.1 | 4.86 | 5.27 |
| COc1cccc(O)c1 | 2.67 | 3.48 | 3.22 |
| C1=CC2C3C=CC(C3)C2C1 (stereo not drawn) | – | 4.1 | 3.41 |
| S=c1[nH]c2ccccc2s1 | – | 4.49 | 4.18 |
| ClC(Cl)C(Cl)Cl | – | 3.46 | 3.92 |
| CC(N)=S | – | 3.64 | 2.44 |
| CCCN(CCC)c1c([N+](=O)[O-])cc(C(C)C)cc1[N+](=O)[O-] | – | 7.01 | 5.85 |
| C1CO1 | – | 2.33 | 2.72 |

| SMILES | 48 h IGC50 (-log10 mol/L) [1] | 48 h LC50 (-log10 mol/L) [2] | 96 h LC50 (-log10 mol/L) [3] |
| --- | --- | --- | --- |
| CC(=O)CC(C)=O | – | 3.32 | 2.85 |
| Clc1cccc(Cl)c1 | 3.56 | 4.3 | 4.27 |
| CCNCC | – | 3.12 | 1.93 |
| c1ccc(-c2ccccc2)cc1 | 4.05 | 4.91 | 4.72 |
| CCOC(=O)CC(SP(=S)(OC)OC)C(=O)OCC (stereo not drawn) | – | 8.35 | 4.42 |
| CCCCCCCCCc1ccc(O)cc1 | 5.47 | 6.06 | 5.91 |
| Clc1ccccc1-c1ccccc1 | – | 5.42 | 4.67 |
| CNC(=O)O/N=C/C(C)(C)SC | – | 5.55 | 5.17 |
| CC(C)=O | 0.796 | 0.673 | 0.854 |
| CC(C)[C@H](C(=O)O[C@H](C#N)c1cccc(Oc2ccccc2)c1)c1ccc(Cl)cc1 | – | 8.58 | 9.26 |
| CCC1(c2ccccc2)C(=O)NC(=O)NC1=O | – | 2.2 | 2.68 |
| CCN(CC)c1nc(C)cc(OP(=S)(OC)OC)n1 | – | 9.14 | 5.09 |
| O=C(O)COc1ccc(Cl)cc1Cl | – | 3.78 | 2.92 |
| CC(O)CC(C)(C)O (stereo not drawn) | 1.05 | 1.22 | 1.04 |
| Clc1ccccc1 | 2.87 | 3.92 | 3.65 |
| c1ccc2c(c1)[nH]c1ccccc12 | 3.91 | 4.7 | 5.25 |
| CCN(CC)C(=O)c1cccc(C)c1 | – | 3.08 | 3.24 |
| CC(Cl)(Cl)Cl | – | 3.72 | 3.4 |
| CCOCC | – | 1.73 | 1.46 |
| c1ccc(Oc2ccccc2)cc1 | – | 5.43 | 4.63 |
| CC1=CC(=O)CC(C)(C)C1 | – | 3.06 | 2.74 |

| SMILES | 48 h IGC50 (-log10 mol/L) [1] | 48 h LC50 (-log10 mol/L) [2] | 96 h LC50 (-log10 mol/L) [3] |
| --- | --- | --- | --- |
| Oc1ccc2ccccc2c1 | – | 4.61 | 4.62 |
| Clc1ccc(Cl)c(-c2ccccc2Cl)c1 | – | 6.67 | 6.88 |
| CC(C)(c1ccc(O)cc1)c1ccc(O)cc1 | – | 4.3 | 4.69 |
| CCCO | 1.25 | 0.935 | 1.12 |
| CCCCOC(=O)c1ccccc1C(=O)OCc1ccccc1 | – | 5.19 | 5.22 |
| Cc1ccccc1 | 3.25 | 3 | 3.43 |
| CCCN(CCC)c1c([N+](=O)[O-])cc(C(F)(F)F)cc1[N+](=O)[O-] | – | 6.24 | 6.5 |
| CNC(=O)ON=C(C)SC | – | 6.96 | 4.89 |
| CCc1ccccc1 | – | 4.5 | 3.95 |
| C1CCCCC1 | – | 4.34 | 3.3 |
| COP(=O)(OC)C(O)C(Cl)(Cl)Cl (stereo not drawn) | – | 7.7 | 3.37 |
| ClC(Cl)=C(Cl)Cl | – | 4 | 3.96 |
| COP(=S)(OC)SCN1C(=O)c2ccccc2C1=O | – | 5.6 | 4.59 |
| Cc1cc(O)ccc1Cl | 3.8 | 4.85 | 4.42 |
| C=CC=O | 4.89 | 5.99 | 6.32 |
| ClC1=C(Cl)[C@]2(Cl)[C@@H]3[C@@H]4C[C@@H]([C@H]5O[C@@H]45)[C@@H]3[C@@]1(Cl)C2(Cl)Cl | – | 6.51 | 7.21 |
| OCCOCCOCCO | – | 0.46 | 0.309 |
| c1ccc(C2CO2)cc1 (stereo not drawn) | – | 4.02 | 4 |
| CCC(O)C(C)CO (stereo not drawn) | – | 1.22 | 1.13 |
| Cc1ccccc1C | – | 3.79 | 3.81 |
| COP(=S)(OC)Oc1ccc([N+](=O)[O-])c(C)c1 | – | 7.67 | 4.81 |

| SMILES | 48 h IGC50 (-log10 mol/L) [1] | 48 h LC50 (-log10 mol/L) [2] | 96 h LC50 (-log10 mol/L) [3] |
| --- | --- | --- | --- |
| c1cc2c3c(cccc3c1)CC2 | – | 3.58 | 4.98 |
| ClC1=C(Cl)[C@]2(Cl)[C@H]3[C@H]([C@H](Cl)[C@]4(Cl)O[C@H]34)[C@@]1(Cl)C2(Cl)Cl | – | 5.51 | 8.1 |
| CC(C)CO | – | 1.82 | 1.7 |
| O=[N+]([O-])c1ccccc1 | 3.14 | 3.62 | 3.02 |
| OCCO | – | 0.122 | 0.037 |
| COP(=S)(OC)Oc1ccc([N+](=O)[O-])cc1 | – | 7.34 | 4.51 |
| Oc1ccccc1 | 2.65 | 3.85 | 3.5 |
| CCCCOC(=O)c1ccccc1C(=O)OCCCC | – | 4.88 | 5.37 |
| Cc1ccccc1O | 2.71 | 3.86 | 3.89 |
| Cc1cccc(C)c1 | – | 3.65 | 3.82 |
| CCc1ccc(C)nc1 | 2.82 | 3.48 | 3.17 |
| CCOP(=S)(OCC)Oc1ccc([N+](=O)[O-])cc1 | – | 8.15 | 5.32 |
| ClC=C(Cl)Cl | – | 3.48 | 3.47 |
| c1ccc2nc3ccccc3cc2c1 | 4.4 | 4.85 | 4.89 |
| CCOP(=S)(OCC)Oc1cc(C)nc(C(C)C)n1 | – | 8.56 | 4.81 |
| CCCCC(CC)COC(=O)c1ccccc1C(=O)OCC(CC)CCCC (stereo not drawn) | – | 4.55 | 2.55 |
| CCOP(=S)(OCC)SCSCC | – | 7.13 | 6.02 |
| CCOP(=O)(OCC)Oc1ccc([N+](=O)[O-])cc1 | – | 9.14 | 5.98 |
